Results: US10618918B2, “Substituted boronic acids as antimicrobials” (priority 2015, dated 2020)
pKi: −log10 of the molar value. Like-named read-outs stand apart in the source and are kept apart here.

Columns and labels:
ECL1002 = experiment: Aztreonam potentiation (MPC@4), strain ECL1002; conditions: minimum BLI concentration inhibiting growth with aztreonam 4 μg/mL; tested up to 40 μg/mL
KP1005 CTX-M-14 = experiment: Tigemonam potentiation (MPC@4), strain KP1005 CTX-M-14; conditions: minimum BLI concentration inhibiting growth with tigemonam 4 μg/mL; tested up to 40 μg/mL
[1] = target: purified class A, C and D enzymes (β-lactamases) (Klebsiella pneumoniae, UniProt Q6XEC0); experiment: biochemical; type: biochemical
[2] = target: purified class A, C and D enzymes (β-lactamases) (Klebsiella pneumoniae, UniProt Q9F663); experiment: biochemical; type: biochemical
[3] = target: T1, purified class A, C and D enzymes (β-lactamases) (Pseudomonas aeruginosa, UniProt P24735); experiment: biochemical; type: biochemical
T1 construct: rows headed: Ki (Pa-AmpC, NCF), uM; other: purified Pa-AmpC; nitrocefin (NCF) as reporter substrate

[4] = target: purified class A, C and D enzymes (β-lactamases) (Enterobacter cloacae, UniProt P05364); experiment: biochemical; type: biochemical
[5] = target: T2, purified class A, C and D enzymes (β-lactamases) (Acinetobacter baumannii, UniProt Q9L4P2); experiment: biochemical; type: biochemical; conditions: purified OXA-23; nitrocefin (NCF) as reporter substrate
T2 construct: rows headed: Ki (OXA-23, NCF), uM; other: purified OXA-23; nitrocefin (NCF) as reporter substrate

ec308 SHV-5 = experiment: Aztreonam potentiation (MPC@4), strain ec308 SHV-5; conditions: minimum BLI concentration inhibiting growth with aztreonam 4 μg/mL; tested up to 40 μg/mL
KP1086 OXA-48 = experiment: Biapenem potentiation (MPC@1), strain KP1086 OXA-48; type: cell-based; conditions: minimum BLI concentration inhibiting growth with biapenem 1 μg/mL; tested up to 40 μg/mL
Method: (§1) Biapenem was present in the test medium at 1 μg/mL. […] Table 3 summarizes the BLI potency of biapenem potentiation (MPC@1) for two strains overexpressing class A (KPC) and class D (OXA-48) carbapenemases. Biapenem MIC for each strain is also shown.

KP1009 CTX-M-15 = experiment: Aztreonam potentiation (MPC@4), strain KP1009 CTX-M-15; conditions: minimum BLI concentration inhibiting growth with aztreonam 4 μg/mL; tested up to 40 μg/mL
KP1004 KPC-2 [6] = experiment: Aztreonam potentiation (MPC@4), strain KP1004 KPC-2; conditions: minimum BLI concentration inhibiting growth with aztreonam 4 μg/mL; tested up to 40 μg/mL
KP1004 KPC-2 [7] = experiment: Biapenem potentiation (MPC@1), strain KP1004 KPC-2; type: cell-based; conditions: minimum BLI concentration inhibiting growth with biapenem 1 μg/mL; tested up to 40 μg/mL
Method: as §1

ec302 TEM-10 = experiment: Aztreonam potentiation (MPC@4), strain ec302 TEM-10; conditions: minimum BLI concentration inhibiting growth with aztreonam 4 μg/mL; tested up to 40 μg/mL
EC1010 CMY-6 = experiment: Aztreonam potentiation (MPC@4), strain EC1010 CMY-6; conditions: minimum BLI concentration inhibiting growth with aztreonam 4 μg/mL; tested up to 40 μg/mL
KP1010 SHV-12 = experiment: Aztreonam potentiation (MPC@4), strain KP1010 SHV-12; conditions: minimum BLI concentration inhibiting growth with aztreonam 4 μg/mL; tested up to 40 μg/mL
AB1053 OXA-72 = experiment: Meropenem potentiation (MPC@8), strain AB1053 OXA-72; type: cell-based, Acinetobacter baumannii; conditions: for MPM MPC8 AB1053 OXA-72: minimum BLI concentration inhibiting growth with meropenem 8 μg/mL, tested up to 20 μg/mL
AB1054 OXA-23 = experiment: Meropenem potentiation (MPC@8), strain AB1054 OXA-23; type: cell-based, Acinetobacter baumannii; conditions: for MPM MPC8 AB1054 OXA-23: minimum BLI concentration inhibiting growth with meropenem 8 μg/mL, tested up to 20 μg/mL
[8] = purified OXA-48, nitrocefin (NCF) as reporter substrate
[9] = purified KPC-2, nitrocefin (NCF) as reporter substrate

O=C(O)c1c(OCC2OCCO2)ccc2c1OB(O)CC2 [Compound 26, 7-(1,3-Dioxolan-2-ylmethoxy)-2-hydroxy-3,4-dihydro-1,2-benzoxaborinine-8-carboxylic acid]
AZT MPC4 ECL1002 (ECL1002): X (X = MPC@4 ≤ 5 μg/mL) | TIG MPC4 CTX-M-14 KP1005 (KP1005 CTX-M-14): Z (Z = MPC@4 > 20 μg/mL) | Ki (OXA-48, NCF), uM [1, 8]: X (X = Ki ≤ 0.1 μM) | Ki (KPC-2, NCF), uM [2, 9]: X (X = Ki ≤ 0.1 μM) | pKi ([3]; purified Pa-AmpC, nitrocefin (NCF) as reporter substrate, read-out: Ki (Pa-AmpC, NCF)): > 7.00 | Ki (P99, NCF), uM ([4]; purified P99, nitrocefin (NCF) as reporter substrate): X (X = Ki ≤ 0.1 μM) | pKi [5]: > 7.00 | AZT MPC4 SHV-5 ec308 (ec308 SHV-5): Y (Y = 5 μg/mL < MPC@4 ≤ 20 μg/mL) | BPM MPC1 OXA-48 KP1086 (KP1086 OXA-48): X (X = MPC@1 ≤ 5 μg/mL) | AZT MPC4 CTX-M-15 KP1009 (KP1009 CTX-M-15): Y (Y = 5 μg/mL < MPC@4 ≤ 20 μg/mL) | AZT MPC4 KPC-2 KP1004 (KP1004 KPC-2 [6]): X (X = MPC@4 ≤ 5 μg/mL) | BPM MPC1 KP1004 KPC-2 (KP1004 KPC-2 [7]): X (X = MPC@1 ≤ 5 μg/mL) | AZT MPC4 TEM-10 ec302 (ec302 TEM-10): Y (Y = 5 μg/mL < MPC@4 ≤ 20 μg/mL) | AZT MPC4 CMY-6 EC1010 (EC1010 CMY-6): X (X = MPC@4 ≤ 5 μg/mL) | AZT MPC4 SHV-12 KP1010 (KP1010 SHV-12): X (X = MPC@4 ≤ 5 μg/mL) | MPM MPC8 AB1053 OXA-72 (AB1053 OXA-72): X (X = MPC@1 ≤ 5 μg/mL) | MPM MPC8 AB1054 OXA-23 (AB1054 OXA-23): Y (Y = 5 μg/mL < MPC@1 ≤ 20 μg/mL)

C[S+]([O-])c1ccc2c(c1C(=O)[O-])O[B-](O)(O)CC2.[Na+].[Na+] (centres unmarked) [Compound 40, Disodium; 4,4-dihydroxy-8-methylsulfinyl-5-oxa-4-boranuidabicyclo[4.4.0]deca-1(6),7,9-triene-7-carboxylate]
AZT MPC4 ECL1002 (ECL1002): X (X = MPC@4 ≤ 5 μg/mL) | TIG MPC4 CTX-M-14 KP1005 (KP1005 CTX-M-14): X (X = MPC@4 ≤ 5 μg/mL) | Ki (OXA-48, NCF), uM [1, 8]: X (X = Ki ≤ 0.1 μM) | Ki (KPC-2, NCF), uM [2, 9]: X (X = Ki ≤ 0.1 μM) | pKi [3]: > 7.00 | Ki (P99, NCF), uM [4]: X (key: X = Ki ≤ 0.1 μM; Y = 0.1 μM < Ki ≤ 1 μM; Z = Ki > 1 μM) | AZT MPC4 SHV-5 ec308 (ec308 SHV-5): X (X = MPC@4 ≤ 5 μg/mL) | BPM MPC1 OXA-48 KP1086 (KP1086 OXA-48): X (X = MPC@1 ≤ 5 μg/mL) | AZT MPC4 CTX-M-15 KP1009 (KP1009 CTX-M-15): X (X = MPC@4 ≤ 5 μg/mL) | AZT MPC4 KPC-2 KP1004 (KP1004 KPC-2 [6]): X (X = MPC@4 ≤ 5 μg/mL) | BPM MPC1 KP1004 KPC-2 (KP1004 KPC-2 [7]): X (X = MPC@1 ≤ 5 μg/mL) | AZT MPC4 TEM-10 ec302 (ec302 TEM-10): X (X = MPC@4 ≤ 5 μg/mL) | AZT MPC4 CMY-6 EC1010 (EC1010 CMY-6): X (X = MPC@4 ≤ 5 μg/mL) | AZT MPC4 SHV-12 KP1010 (KP1010 SHV-12): X (X = MPC@4 ≤ 5 μg/mL) | MPM MPC8 AB1053 OXA-72 (AB1053 OXA-72): Z (Z = MPC@1 > 20 μg/mL) | MPM MPC8 AB1054 OXA-23 (AB1054 OXA-23): Z (Z = MPC@1 > 20 μg/mL)

C[C@@H](O)[C@H]1C(=O)N2C(C(=O)O)=C(S[C@@H]3CN[C@H](C(=O)N(C)C)C3)[C@H](C)[C@H]12 [Meropenem, reference compound]
MIC (AB1053 OXA-72; Acinetobacter baumannii, strain AB1053 OXA-72, meropenem alone): > 64 µg/mL | MIC (AB1054 OXA-23; Acinetobacter baumannii, strain AB1054 OXA-23, meropenem alone): 32 µg/mL

C[C@]1(Cn2ccnn2)[C@H](C(=O)O)N2C(=O)C[C@H]2S1(=O)=O [Tazobactam, reference compound]
AZT MPC4 ECL1002 (ECL1002): Z (Z = MPC@4 > 20 μg/mL) | TIG MPC4 CTX-M-14 KP1005 (KP1005 CTX-M-14): Y (Y = 5 μg/mL < MPC@4 ≤ 20 μg/mL) | Ki (OXA-48, NCF), uM [1]: Y (key: X = Ki ≤ 0.1 μM; Y = 0.1 μM < Ki ≤ 1 μM; Z = Ki > 1 μM) | Ki (KPC-2, NCF), uM [2]: Z (key: X = Ki ≤ 0.1 μM; Y = 0.1 μM < Ki ≤ 1 μM; Z = Ki > 1 μM) | AZT MPC4 SHV-5 ec308 (ec308 SHV-5): Y (Y = 5 μg/mL < MPC@4 ≤ 20 μg/mL) | BPM MPC1 OXA-48 KP1086 (KP1086 OXA-48): Y (Y = 5 μg/mL < MPC@1 ≤ 20 μg/mL) | AZT MPC4 CTX-M-15 KP1009 (KP1009 CTX-M-15): Y (Y = 5 μg/mL < MPC@4 ≤ 20 μg/mL) | AZT MPC4 KPC-2 KP1004 (KP1004 KPC-2 [6]): Z (Z = MPC@4 > 20 μg/mL) | BPM MPC1 KP1004 KPC-2 (KP1004 KPC-2 [7]): Z (Z = MPC@1 > 20 μg/mL) | AZT MPC4 TEM-10 ec302 (ec302 TEM-10): X (X = MPC@4 ≤ 5 μg/mL) | AZT MPC4 CMY-6 EC1010 (EC1010 CMY-6): Y (Y = 5 μg/mL < MPC@4 ≤ 20 μg/mL) | AZT MPC4 SHV-12 KP1010 (KP1010 SHV-12): X (X = MPC@4 ≤ 5 μg/mL)
